Values joined by “and” are separate entries in the source; they are usually repeats but may differ in a detail not shown here. Identical values can stand only once. Counter-ions that a name gives are not always drawn. Like-named read-outs stand apart in the source and are kept apart here.
Key:
[1] = tested on: stereotyped behaviour in female Wistar rats; experiment: Stereotypy in the rat (stereotyped behaviour); format: in vivo; conditions: 50% of the maximal effect, observed 15-300 minutes after administration; for ED50: Rattus norvegicus, po; for ED50, stereotyped behaviour: p.o.
Method: C. Stereotypy in the rat.
The stereotyped behavior appearing in the rat after administration of centrally active dopaminergic substances can be regarded as a relevant test for antiparkinson agents.
The tests were carried out with female Wistar rats under conditions with a low level of stimuli. The behaviour of the rats was observed on 15, 30, 60, 120, 180, 240 and 300 minutes after administration of the substance, the following parameters being considered:
The total impression of the intensity of stereotypy was noted according to the following rating:
For each dose a group of four rats was used, so that the total score for the seven observations was maximally 7×4×3=84.

dopamine receptors [2] = biological target: T1, dopamine receptors (Rattus norvegicus, UniProt P61169); experiment: Affinity to dopamine receptors (receptor binding)
T1 construct: membrane fraction of the corpus striatum of the rat; from tissue; host or cells: rat corpus striatum, membrane fraction
Method: (§1) B. Affinity to dopamine receptors.
(§2) The affinity of the compounds to the dopamine receptors in a membrane fraction of the corpus striatum of the rat was determined as described by D. R. Burt et al., Mol. Pharmacol., 12, 800-812 (1976), dopamine and the dopamine antagonist haloperiodol being used as radioactive labelled ligands. The IC50-value is the concentration of the piperazine derivatives necessary to inhibit the specific binding of dopamine, or haloperiodol for 50%.

dopamine receptors [3] = experiment: Affinity to dopamine receptors (receptor binding); design: species or system rat; conditions: membrane fraction of corpus striatum of the rat, radioactive labelled dopamine as ligand
Method: as §1, §2

[4] = tested on: dopamine uptake by striatal synaptosomes (corpus striatum of the rat); experiment: Inhibition of re-uptake of dopamine by striatal synaptosomes; format: biochemical; conditions: radioactive labelled dopamine
Method: A. Inhibition of re-uptake of dopamine by striatal synaptosomes.
The re-uptake process is the most important physiological mechanism causing inactivation of neurotransmitters like dopamine, which are released into the synaptic cleft by a nervous impulse. Inhibition of the dopamine uptake will lead to increased concentration of dopamine in the synaptic cleft and potentiation of the dopamine effect on the post-synaptic receptor. This inhibition was examined in vitro by incubation of synaptosomes of the corpus striatum of the rat with radioactive labelled dopamine, as described by P. van der Zee and W. Hespe, Neuropharmacol. 17, 483-490 (1978). Measurements were made of the concentration of the test compound giving 50% inhibition of the uptake (IC50).

[5] = membrane fraction of corpus striatum of the rat, radioactive labelled haloperidol (dopamine antagonist) as ligand, read-out: IC50, receptor binding haloperidol

T1 sequence (P61169 whole entry): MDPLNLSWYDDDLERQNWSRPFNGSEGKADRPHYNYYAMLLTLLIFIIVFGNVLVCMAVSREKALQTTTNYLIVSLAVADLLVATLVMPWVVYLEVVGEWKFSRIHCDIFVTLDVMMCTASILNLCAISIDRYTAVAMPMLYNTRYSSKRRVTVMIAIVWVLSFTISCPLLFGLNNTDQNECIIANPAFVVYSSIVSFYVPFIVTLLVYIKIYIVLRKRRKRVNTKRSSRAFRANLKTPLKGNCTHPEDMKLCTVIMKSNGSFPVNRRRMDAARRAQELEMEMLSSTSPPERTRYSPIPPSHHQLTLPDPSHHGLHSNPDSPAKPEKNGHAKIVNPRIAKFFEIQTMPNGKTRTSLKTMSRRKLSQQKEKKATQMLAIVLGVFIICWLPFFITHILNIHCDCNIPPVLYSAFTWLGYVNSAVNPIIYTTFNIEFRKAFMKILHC

Row | Compound | ED50 [1] [mg/kg] | IC50 (dopamine receptors [2]) [nM] | IC50 (dopamine receptors [3]) [nM] | IC50 [4] [nM] | IC50 (dopamine receptors [2]; [5]) [nM] | ED50, stereotyped behaviour [1]
1 | O=C(CCN1CCN(CCOC(c2ccc(F)cc2)c2ccc(F)cc2)CC1)c1ccccc1 [Compound 11, 3-[4-[2-[bis(4-fluorophenyl)methoxy]ethyl]-1-piperazinyl]-1-phenyl-1-propanone] | < 5.5 | 268 | 80.3 | 39.7 | – | –
2 | CC(O)(CCN1CCN(CCOC(c2ccc(F)cc2)c2ccc(F)cc2)CC1)c1ccccc1 (stereo not drawn) [Compound 5, 4-[2-[bis(4-fluorophenyl)methoxy]ethyl]-α-phenyl-α-methyl-1-piperazinepropanol] | 14 | – | 22.3 | 2.4 | 283 | –
3 | O=C(CCCN1CCN(CCOC(c2ccc(F)cc2)c2ccc(F)cc2)CC1)c1ccc(F)cc1 [Compound 15, 4-[4-[2bis(4-fluorophenyl)methoxy]ethyl]-1-piperazinyl]-1-(4-fluorophenyl)-1-butanone dihydrochloride] | > 46 | 19 | 291 | 5.2 | – | –
4 | Cl.Cl.OC(CCCN1CCN(CCOC(c2ccc(F)cc2)c2ccc(F)cc2)CC1)c1ccc(F)cc1 (stereo not drawn) [Compound 9, 4-[2-[bis(4-fluorophenyl)methoxy]ethyl]-α-(4-fluorophenyl)-1-piperazinebutanol dihydrochloride] | < 5 | 492 | 18.1 | 2.8 | – | –
5 | O=C(CN1CCN(CCOC(c2ccc(F)cc2)c2ccc(F)cc2)CC1)c1ccccc1 [Compound 10, 2-[4-[2-[bis(4-fluorophenyl)methoxy]ethyl]-1-piperazinyl]-1-phenylethanonedihydrochloride] | – | – | 55 | 28.3 | 524 | –
6 | OC(CN1CCN(CCOC(c2ccc(F)cc2)c2ccc(F)cc2)CC1)c1ccccc1 (stereo not drawn) [Compound 1, 4-[2-[bis(4-fluorophenyl)methoxy]ethyl]-α-phenyl-1-piperazineethanol] | 17.5 | – | 46.7 | 26.5 | 780 | –
7 | Cl.Cl.O=C(CCCN1CCN(CCOC(c2ccc(F)cc2)c2ccc(F)cc2)CC1)c1ccccc1 [Compound 14, 4-[4-[2-[bis(4-fluorophenyl)methoxy]-ethyl]-1-piperazinyl]-1-phenyl-1-butanone dihydrochloride] | 18 | 23.3 | 15.5 | 2.5 | – | –
8 | CC(C)C[C@H]1C(=O)N2CCC[C@H]2[C@]2(O)O[C@](NC(=O)[C@@H]3C=C4c5cccc6[nH]c(Br)c(c56)C[C@H]4N(C)C3)(C(C)C)C(=O)N12 [bromocriptine, reference compound] | 25.3 | – | – | – | – | –
9 | COC(CCN1CCN(CCOC(c2ccc(F)cc2)c2ccc(F)cc2)CC1)c1ccccc1.Cl.Cl (stereo not drawn) [Compound 16, 1-[2-[bis-(4-fluorophenyl)methoxy]ethyl]-4-(3-phenyl-3-methoxypropyl]piperazine dihydrochloride] | 4.6 | 523 | 50 | 13.2 | – | –
10 | CC(O)(CCN1CCN(CCOC(c2ccc(F)cc2)c2ccc(F)cc2)CC1)c1ccc(F)cc1 (stereo not drawn) [Compound 6, 4-[2-[bis(4-fluorophenyl)methoxy]ethyl]-α-(4-fluorophenyl)-α-methyl-1-piperazinepropanol] | 11.4 | – | 32.3 | 6.7 | 277 | –
11 | O=C(CCN1CCN(CCOC(c2ccc(F)cc2)c2ccc(F)cc2)CC1)c1ccc(F)cc1 [Compound 12, 3-[4-[2-[bis(4-fluorophenyl)methoxy]ethyl]-1-piperazinyl]-1-(4-fluorophenyl)-1-propanone] | 5.5 | – | 180 | 35.4 | 467 | –
12 | CNC(=O)OC(CCN1CCN(CCOC(c2ccc(F)cc2)c2ccc(F)cc2)CC1)c1ccccc1 (stereo not drawn) [Compound 17, methylcarbaminic 3-[4-[2-[bis(4-fluorophenyl)methoxy]ethyl]-1-piperazinyl]-1-phenylpropyl]ester (Z)-2-butendioate (1:2)] | 4.3 | 97.3 | 27.2 | 4.9 | – | 7.2 mg/kg p.o.
13 | CCNC(=O)OC(CCN1CCN(CCOC(c2ccc(F)cc2)c2ccc(F)cc2)CC1)c1ccccc1 (stereo not drawn) [Compound 18, Ethylcarbaminic[3-[4-[2-[bis(fluorophenyl)methoxy]ethyl]-1-piperazinyl]-1-phenylpropyl]ester (Z)-2-butenedioate (1:2)] | 11.2 | – | 16.9 | 2.4 | 216 | –
14 | OC(CCN1CCN(CCOC(c2ccc(F)cc2)c2ccc(F)cc2)CC1)c1ccc(F)cc1 (stereo not drawn) [Compound 3, 4-[2-[bis(4-fluorophenyl)methoxy]ethyl]-α-(4-fluorophenyl)-1-piperazinepropanol] | 1.7 | – | 8.7 | 8.2 | 610 | 2.3 mg/kg p.o. and 1.3 mg/kg p.o.
15 | O=C(Nc1ccccc1)OC(CCN1CCN(CCOC(c2ccc(F)cc2)c2ccc(F)cc2)CC1)c1ccccc1 (stereo not drawn) [Compound 19, Phenylcarbaminic[3-[4-[2-[bis(4-fluorophenyl)methoxy]ethyl]-1-piperazinyl]-1-phenylpropyl]ester (Z)-2-butenedioate (1:2)] | – | – | 43.4 | 3.3 | 302 | –
16 | OC(Cc1ccccc1)CN1CCN(CCOC(c2ccc(F)cc2)c2ccc(F)cc2)CC1 (stereo not drawn) [Compound 4, 4-[2-[bis(4-fluorophenyl)methoxy]ethyl]-α-(phenylmethyl)-1-piperazineethanol] | ~6 | – | 30.5 | 5.4 | 546 | –
17 | OC(CCCN1CCN(CCOC(c2ccc(F)cc2)c2ccc(F)cc2)CC1)c1ccccc1 (stereo not drawn) [Compound 8, 4-[2-[bis(4-fluorophenyl)methoxy]ethyl]-α-phenyl-1-piperazinebutanol] | 6.2 | – | 4 | 3.4 | 445 | 4.6 mg/kg p.o.
18 | c1cnc(N2CCN(Cc3ccc4c(c3)OCO4)CC2)nc1 [piribedil, reference compound] | 99.5 | – | – | – | – | –
19 | CCC(O)(CCN1CCN(CCOC(c2ccc(F)cc2)c2ccc(F)cc2)CC1)c1ccccc1 (stereo not drawn) [Compound 7, 4-[2-[bis(4-fluorophenyl)methoxy]ethyl]-α-ethyl-α-phenyl-1-piperazinepropanol] | 26 | – | 63 | 22.1 | 361 | –
20 | Cl.Cl.O=C(Cc1ccccc1)CN1CCN(CCOC(c2ccc(F)cc2)c2ccc(F)cc2)CC1 [Compound 13, 1-[4-[2-[bis(4-fluorophenyl)methoxy]ethyl]-1-piperazinyl]-3-phenyl-2-propanone dihydrochloride] | 9.1 | 545 | 76 | 27 | – | –
21 | OC(CCN1CCN(CCOC(c2ccc(F)cc2)c2ccc(F)cc2)CC1)c1ccccc1 (stereo not drawn) [Compound 2, 4-[2-[bis(4-fluorophenyl)methoxy]ethyl]-α-phenyl-1-piperazinepropanol] | – | 307 | 13.3 | 1.3 | – | –

Source: patent US4476129A, “4-[2-[Bis(halophenyl)methoxy]-ethyl]-α-(substituted phenyl)-1-piperazinealkanol derivatives, processes for their preparation and pharmaceutical preparations containing them” (priority 1982, dated 1984)
